Assay [1] deals with P. aeruginosa strain PAO1. Put plainly: MIC against PAO1 in Mueller-Hinton broth with 50% human plasma or human serum. It is filed as cell-based, Pseudomonas aeruginosa. The settings on record: PAO1; for Minimal inhibitory concentration, Human Plasma: Mueller-Hinton broth with 50% human plasma; for Minimal inhibitory concentration, Human Serum: Mueller-Hinton broth with human serum.

The test system of the next assay is Pseudomonas aeruginosa. Put plainly: microbe, parasite or virus in culture. It is filed as cell-based. Conditions: P. aeruginosa (ATCC 27853); control agents of Table 8.
For another assay, the system named is Enterobacter cloacae. Put plainly: microbe, parasite or virus in culture. It is filed as cell-based. In outline:
(§1)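 Human serum was added to CAA broth for these MIC determinations with peptides.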

In another assay the test system is Escherichia coli. Put plainly: microbe, parasite or virus in culture. It is filed as cell-based. Conditions: for MIC (in brackets beside MBEC): control agents of Table 8. In outline: as §1
In the next assay the test system is Acinetobacter baumannii. Put plainly: microbe, parasite or virus in culture. It is filed as cell-based.
Assay [2] deals with eight different strains of five species of Gram-negative bacteria. Put plainly: MBEC in eight strains of five species of Gram-negative bacteria. The assay is classed as cell-based. Conditions: 24 h biofilm in LB, 16 h treatment. The method, then: Determination of Minimal Biofilm Eradicating Concentrations (MBEC). […] The OD600 of extracted crystal violet was determined. The MBEC value of each sample was determined as the minimum drug concentration required to remove >95% of biofilm biomass as assessed by crystal violet quantitation (in comparison to untreated controls).
MBEC values were likewise determined for Chp2, Chp2-M1, and Chp10-M1 in eight different strains of five species of Gram-negative bacteria. […] The films were then washed and stained with crystal violet to visualize the MBEC.

The next assay has as its system LPS. Put plainly: Endotoxin neutralization, limulus amoebocyte lysate (LAL) enzyme assay, LPS binding. The assay is classed as biochemical. The settings on record: LPS 0.8 EU/mL; for LPS binding: […]-64 μg/mL, 24° C., 1 hour. Here is the method: CHEM. […] The standard reference samples contained only LPS dissolved in pyrogen-free water. Solutions were mixed well and incubated at 24° C. for 1 hour, and the manufacturers' test procedure for quantitative detection of endotoxins was followed.

The subject of assay [3] is Klebsiella pneumoniae. Put plainly: microbe, parasite or virus in culture. The assay is classed as cell-based. Conditions: control agents of Table 8.
The subject of assay [4] is carbapenem-resistant P. aeruginosa clinical isolate CFS-1292. Put plainly: MIC by modified CLSI broth microdilution against P. aeruginosa CFS-1292 (CAA, CAA + human serum). The assay is classed as cell-based, Pseudomonas aeruginosa.
The subject of assay [5] is Klebsiella pneumoniae. It is filed as cell-based. The settings on record: Klebsiella pneumoniae HM-44; CAA supplemented with human serum. The method, then:
Determination of Minimal Inhibitory Concentrations (MIC).
Additional MIC testing was performed for several peptides against the ESKAPE pathogens Escherichia coli, Enterobacter cloacae, Klebsiella pneumoniae, and Acinetobacter baumannii, in CAA supplemented with human serum (Table D).

Another assay has as its system M. smegmatis. Put plainly: 45 hr MIC against M. smegmatis (NTM), Mueller Hinton broth. It is filed as cell-based, Mycobacterium smegmatis. Conditions: M. smegmatis MC^2 155, Run #1.
The test system of assay [6] is A. baumannii strain BAA-747 persister cells. Put plainly: Activity against persister cells, A. baumannii. The assay is classed as cell-based, Acinetobacter baumannii. The settings on record: A. baumannii BAA-747 persister cells.
Assay [7] concerns P. aeruginosa strain PA20 persister cells. Put plainly: Activity against persister cells, P. aeruginosa. The assay is classed as cell-based, Pseudomonas aeruginosa. Conditions: P. aeruginosa PA20 persister cells.
The test system of assay [8] is Stenotrophomonas-containing biofilm on explanted hemodialysis catheters. Put plainly: Antibiofilm activity in explanted hemodialysis catheters. The assay is classed as cell-based, Stenotrophomonas spp. Here is the method: The explanted hemodialysis catheters were cut into equal length segments and bisected to expose the lumen.
The samples were treated for 4 hours at 37° C. before rinsing with Lactated Ringer's solution.
Three additional infected hemodialysis catheter samples were removed from two patients (one catheter from a first patient and two catheters from a second patient). […] The samples were incubated at 37° C. for 4 hours.

The mark [9] stands for this setting: peptide concentration 0.5 μg/mL.
The mark [10] stands for this setting: log10 CFU/mL reduction as compared to buffer.

Where only a bound is given, the exact number is not on record here.

For the substance LL-37 [reference compound], the “Minimal inhibitory concentration, Human Plasma” value in assay [1] is over 64 µg/mL. Moreover, in assay [1], the “Minimal inhibitory concentration, Human Serum” value was over 64 µg/mL. The “MIC (in brackets beside MBEC)” value is recorded as “(16) μg/mL” against Pseudomonas aeruginosa; “(16) μg/mL” in the assay with Enterobacter cloacae (E. cloacae (CCUG 63317), control agents of Table 8); “(16) μg/mL” against Escherichia coli (E. coli (ATCC 25922)); “(16) μg/mL” against Escherichia coli (E. coli (ATCC 35329)); “(16) μg/mL” against Escherichia coli (E. coli (EC2)); “(16) μg/mL” in the assay on Acinetobacter baumannii (A. baumanni (ATCC BAA-747), control agents of Table 8). The “MIC (in brackets beside MBEC)” value against Klebsiella pneumoniae [3] (K. pneumoniae (ATCC 700603)) and in the assay with Klebsiella pneumoniae [3] (K. pneumoniae (KP1)) was “(16) μg/mL” each time. Further, the MBEC turned out to be 0.25 µg/mL in assay [2] (A. baumanni (ATCC BAA-747)); 8 µg/mL in assay [2] (E. cloacae (CCUG 63317)); 16 µg/mL in assay [2] (E. coli (ATCC 25922)); 16 µg/mL in assay [2] (E. coli (ATCC 35329)); 8 µg/mL in assay [2] (E. coli (EC2)); 32 µg/mL in assay [2] (K. pneumoniae (ATCC 700603)). Also, the results for the MBEC in [2] (K. pneumoniae (KP1)) and in [2] (P. aeruginosa (ATCC 27853)) were 16 µg/mL and 8 µg/mL, respectively. The LPS binding entry with LPS is “dose-dependent increases in LPS binding”. The “% LPS Bound” value came out at 90.6% in the assay with LPS (setting [9]); 92.2% with LPS (peptide concentration 1 μg/mL); 92.9% with LPS (peptide concentration 2 μg/mL); 92.3% in the assay on LPS (peptide concentration 4 μg/mL); 92.4% in the assay with LPS (peptide concentration 8 μg/mL); 92.1% with LPS (peptide concentration 16 μg/mL). Further, the “% LPS Bound” value in the assay with LPS (peptide concentration 32 μg/mL) is listed as 87.3%; in the assay on LPS (peptide concentration 64 μg/mL), 75.4%.

Take “MAEQYELSQEQSEQLFSETALQMHEQNELQEIMQGGIEF [Chp5]”: in assay [4] (100% CAA, 1st run or single value), the “MIC (μg/mL) against CFS-1292 in 100% CAA (1st run/2nd run)” value is over 32 µg/mL. The “MIC (μg/mL) against CFS-1292 in CAA + […] human serum” value in assay [4] (CAA + […] human serum) was over 32 µg/mL. In addition, the MIC in the assay with Enterobacter cloacae (Enterobacter cloacae ATCC 13047, CAA supplemented with human serum) was over 32 µg/mL; against Escherichia coli (Escherichia coli ATCC 25922, CAA supplemented with human serum), 4 µg/mL; against Klebsiella pneumoniae [5], 8 µg/mL; in the assay on Acinetobacter baumannii (Acinetobacter baumannii ATCC BAA 747, CAA supplemented with human serum) it was over 32 µg/mL. Moreover, in the assay on M. smegmatis, the “45 hr MIC” value was over 64 µg/mL. For the same substance, the LPS binding entry in the assay with LPS is on record as “does not bind LPS”. Also, the “% LPS Bound” value in the assay with LPS (setting [9]) is on record as 0.1%; with LPS (peptide concentration 1 μg/mL) it was 0.1%; in the assay with LPS (peptide concentration 2 μg/mL), 0.1%; with LPS (peptide concentration 4 μg/mL), 0.1%; with LPS (peptide concentration 8 μg/mL) it was 5.4%; with LPS (peptide concentration 16 μg/mL), 0.1%. Also, the figures for the “% LPS Bound” value in the assay on LPS (peptide concentration 32 μg/mL) and in the assay with LPS (peptide concentration 64 μg/mL) were 0.1% and 0.9%, respectively. Moreover, the “MIC Log10 (CFU/mL) Run #1” value in assay [6] (1 hour at 37° C., Run #1, limit of detection 1.6-log10 CFU/mL) is 4.1 Log10 (CFU/mL). The “MIC Log10 (CFU/mL) Run #2” value in assay [6] (1 hour at 37° C., Run #2, limit of detection 1.6-log10 CFU/mL) is on record as 5.1 Log10 (CFU/mL). Also, the “MIC Log10 (CFU/mL) Run #3” value in assay [6] (1 hour at 37° C., Run #3, limit of detection 1.6-log10 CFU/mL) is on record as 4.5 Log10 (CFU/mL). The “MIC Log10 (CFU/mL) Average” value in assay [6] (average of 3 runs) is reported as 4.6 Log10 (CFU/mL). Further, the “Delta Log” value in assay [6] (setting [10]) worked out at 0.3; in assay [7] (setting [10]) it was 0.5. For the same substance, the “Viable persister count after treatment (log10 CFU/mL)” value in assay [7] (Run #1, limit of detection 2-log10 CFU/mL) was 4.4 Log10 (CFU/mL); in assay [7] (Run #2, limit of detection 2-log10 CFU/mL) it was 4.3 Log10 (CFU/mL); in [7] (Run #3, limit of detection 2-log10 CFU/mL) it was 3.1 Log10 (CFU/mL); in [7] (average of 3 runs), 3.9 Log10 (CFU/mL).

On to PGLa, for which, in assay [1], the “Minimal inhibitory concentration, Human Plasma” value was over 64 µg/mL and the “Minimal inhibitory concentration, Human Serum” value was over 64 µg/mL.

“Pediocin (KYYGNGVTCGKHSCSVDWGKATTCIINNGAMAWATGGHQGNHKC; Bacteriocin pediocin PA-1; UniProt P29430 19-62, looked up)”: in assay [1], the “Minimal inhibitory concentration, Human Plasma” value was over 64 µg/mL and the “Minimal inhibitory concentration, Human Serum” value was over 64 µg/mL.

On to Protegrin 1, for which, in assay [1], the “Minimal inhibitory concentration, Human Plasma” value is 1 µg/mL and the “Minimal inhibitory concentration, Human Serum” value worked out at 4 µg/mL.

Consider daptomycin, for which the “eradication of catheter biofilm” value in assay [8] (first catheter sample, 4 hours at 37° C., Chp2-M1 10 μg/mL, CF-301 and daptomycin 1 μg/mL) is given as “did not”. Also, in [8] (treatment at 1 μg/mL), the “Log10 CFU/g for Catheter Sample #2 enumerated after 24 hours of incubation at 37 °C.” value was found to be 3.72 Log10 CFU/g and the “Log10 CFU/g for Catheter Sample #3 enumerated after 24 hours of incubation at 37 °C.” value is 4.15 Log10 CFU/g. Further, the “Log10 CFU/g for Catheter Sample #1 (enumerated after 18 hours of incubation at 37 °C.)” value in assay [8] (treatment at 1 μg/mL, 4 hours at 37° C.) turned out to be 3.66 Log10 CFU/g.

The values are drawn from patent publication US20220401514A1, “ANTIMICROBIAL, BACTERIOPHAGE-DERIVED POLYPEPTIDES AND THEIR USE AGAINST GRAM-NEGATIVE AND ACID-FAST BACTERIA” (CONTRAFECT CORPORATION, priority 2019, published 2022).
